# Tests used:
# Assay in all cases: relative viability (nuclei count vs DMSO), 5 days (fraction); higher = more cells survive
# CX-5461 + Olaparib = compound: Cc1cnc(CNC(=O)c2c(=O)c3ccc(N4CCCN(C)CC4)nc3n3c2sc2ccccc23)cn1 [CX-5461] + O=C(c1cc(Cc2n[nH]c(=O)c3ccccc23)ccc1F)N1CCN(C(=O)C2CC2)CC1 [Olaparib] (partner 8 µM)
# Summary of the method: (§1)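 Values are medians from duplicate plates. Each reflects relative viability, defined as the nuclei count of treated wells over that of vehicle wells. Lung cancer cell lines in 1536-well plates were pin-tool dosed one day after seeding with one drug alone or with a fixed anchor-drug dose plus five library-drug doses (not always all listed) in √10 steps, then fixed, stained and imaged at 4× after 5 days.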
# IMD-0354 + Vorinostat = compound: O=C(Nc1cc(C(F)(F)F)cc(C(F)(F)F)c1)c1cc(Cl)ccc1O [IMD-0354] + O=C(CCCCCCC(=O)Nc1ccccc1)NO [Vorinostat] (partner 1 µM)
# Summary of the method: as §1
# IMD-0354 + Pictilisib = compound: O=C(Nc1cc(C(F)(F)F)cc(C(F)(F)F)c1)c1cc(Cl)ccc1O [IMD-0354] + CS(=O)(=O)N1CCN(Cc2cc3nc(-c4cccc5[nH]ncc45)nc(N4CCOCC4)c3s2)CC1 [Pictilisib] (partner 1 µM)
# Summary of the method: as §1
# CX-5461 + Pemetrexed = compound: Cc1cnc(CNC(=O)c2c(=O)c3ccc(N4CCCN(C)CC4)nc3n3c2sc2ccccc23)cn1 [CX-5461] + Nc1nc2[nH]cc(CCc3ccc(C(=O)N[C@@H](CCC(=O)O)C(=O)O)cc3)c2c(=O)[nH]1 [Pemetrexed] (partner 0.2 µM)
# Summary of the method: as §1
cell line,measurement,setting,value
IA-LM,relative viability,CX-5461 + Olaparib; first compound 0.01 µM,0.838
same,relative viability,CX-5461 + Olaparib; first compound 0.03162 µM,0.83
same,relative viability,CX-5461 + Olaparib; first compound 0.1 µM,0.807
same,relative viability,CX-5461 + Olaparib; first compound 0.3162 µM,0.753
same,relative viability,CX-5461 + Olaparib; first compound 1 µM,0.444
same,relative viability,IMD-0354 + Vorinostat; first compound 0.04 µM,0.89
same,relative viability,IMD-0354 + Vorinostat; first compound 0.1265 µM,0.737
same,relative viability,IMD-0354 + Vorinostat; first compound 0.4 µM,0.397
same,relative viability,IMD-0354 + Vorinostat; first compound 1.265 µM,1.11
same,relative viability,IMD-0354 + Vorinostat; first compound 4 µM,0.681
same,relative viability,IMD-0354 + Pictilisib; first compound 0.1265 µM,0.377
same,relative viability,IMD-0354 + Pictilisib; first compound 0.4 µM,0.216
same,relative viability,IMD-0354 + Pictilisib; first compound 1.265 µM,0.0793
same,relative viability,IMD-0354 + Pictilisib; first compound 4 µM,0.112
LC-2-ad,relative viability,CX-5461 + Olaparib; first compound 0.01 µM,0.643
same,relative viability,CX-5461 + Olaparib; first compound 0.03162 µM,0.694
same,relative viability,CX-5461 + Olaparib; first compound 0.1 µM,0.689
same,relative viability,CX-5461 + Olaparib; first compound 0.3162 µM,0.667
same,relative viability,CX-5461 + Olaparib; first compound 1 µM,0.617
same,relative viability,CX-5461 + Pemetrexed; first compound 0.01 µM,0.238
same,relative viability,CX-5461 + Pemetrexed; first compound 0.03162 µM,0.27
same,relative viability,CX-5461 + Pemetrexed; first compound 0.1 µM,0.244
same,relative viability,CX-5461 + Pemetrexed; first compound 0.3162 µM,0.296
same,relative viability,CX-5461 + Pemetrexed; first compound 1 µM,0.279
same,relative viability,IMD-0354 + Vorinostat; first compound 0.04 µM,0.732
same,relative viability,IMD-0354 + Vorinostat; first compound 0.1265 µM,0.691
same,relative viability,IMD-0354 + Vorinostat; first compound 0.4 µM,0.394
same,relative viability,IMD-0354 + Vorinostat; first compound 1.265 µM,0.193
same,relative viability,IMD-0354 + Vorinostat; first compound 4 µM,0.169
same,relative viability,IMD-0354 + Pictilisib; first compound 0.04 µM,0.494
same,relative viability,IMD-0354 + Pictilisib; first compound 0.1265 µM,0.424
same,relative viability,IMD-0354 + Pictilisib; first compound 0.4 µM,0.404
same,relative viability,IMD-0354 + Pictilisib; first compound 1.265 µM,0.106
same,relative viability,IMD-0354 + Pictilisib; first compound 4 µM,0.136
LCLC-97TM1,relative viability,CX-5461 + Olaparib; first compound 0.01 µM,0.313
same,relative viability,CX-5461 + Olaparib; first compound 0.03162 µM,0.503
same,relative viability,CX-5461 + Olaparib; first compound 0.1 µM,0.466
same,relative viability,CX-5461 + Olaparib; first compound 0.3162 µM,0.333
same,relative viability,CX-5461 + Olaparib; first compound 1 µM,0.298
same,relative viability,CX-5461 + Pemetrexed; first compound 0.01 µM,0.178
same,relative viability,CX-5461 + Pemetrexed; first compound 0.03162 µM,0.193
same,relative viability,CX-5461 + Pemetrexed; first compound 0.1 µM,0.196
same,relative viability,CX-5461 + Pemetrexed; first compound 0.3162 µM,0.103
same,relative viability,CX-5461 + Pemetrexed; first compound 1 µM,0.155
same,relative viability,IMD-0354 + Vorinostat; first compound 0.04 µM,0.879
same,relative viability,IMD-0354 + Vorinostat; first compound 0.1265 µM,0.782
same,relative viability,IMD-0354 + Vorinostat; first compound 0.4 µM,0.273
same,relative viability,IMD-0354 + Vorinostat; first compound 1.265 µM,0.0926
same,relative viability,IMD-0354 + Vorinostat; first compound 4 µM,0.123
same,relative viability,IMD-0354 + Pictilisib; first compound 0.1265 µM,0.145
same,relative viability,IMD-0354 + Pictilisib; first compound 0.4 µM,0.142
same,relative viability,IMD-0354 + Pictilisib; first compound 1.265 µM,0.128
same,relative viability,IMD-0354 + Pictilisib; first compound 4 µM,0.103
LCLC-103H,relative viability,CX-5461 + Olaparib; first compound 0.01 µM,0.766
same,relative viability,CX-5461 + Olaparib; first compound 0.03162 µM,0.857
same,relative viability,CX-5461 + Olaparib; first compound 0.1 µM,0.793
same,relative viability,CX-5461 + Olaparib; first compound 0.3162 µM,0.788
same,relative viability,CX-5461 + Olaparib; first compound 1 µM,0.762
same,relative viability,CX-5461 + Pemetrexed; first compound 0.01 µM,0.426
same,relative viability,CX-5461 + Pemetrexed; first compound 0.03162 µM,0.482
same,relative viability,CX-5461 + Pemetrexed; first compound 0.1 µM,0.46
same,relative viability,CX-5461 + Pemetrexed; first compound 0.3162 µM,0.401
same,relative viability,CX-5461 + Pemetrexed; first compound 1 µM,0.4
same,relative viability,IMD-0354 + Vorinostat; first compound 0.04 µM,0.79
same,relative viability,IMD-0354 + Vorinostat; first compound 0.1265 µM,0.706
same,relative viability,IMD-0354 + Vorinostat; first compound 0.4 µM,0.539
same,relative viability,IMD-0354 + Vorinostat; first compound 1.265 µM,0.364
same,relative viability,IMD-0354 + Vorinostat; first compound 4 µM,0.287
same,relative viability,IMD-0354 + Pictilisib; first compound 0.04 µM,0.676
same,relative viability,IMD-0354 + Pictilisib; first compound 0.1265 µM,0.655
same,relative viability,IMD-0354 + Pictilisib; first compound 0.4 µM,0.521
same,relative viability,IMD-0354 + Pictilisib; first compound 1.265 µM,0.544
same,relative viability,IMD-0354 + Pictilisib; first compound 4 µM,0.345
LK-2,relative viability,CX-5461 + Olaparib; first compound 0.01 µM,0.664
same,relative viability,CX-5461 + Olaparib; first compound 0.03162 µM,0.957
same,relative viability,CX-5461 + Olaparib; first compound 0.1 µM,0.918
same,relative viability,CX-5461 + Olaparib; first compound 1 µM,0.497
same,relative viability,CX-5461 + Pemetrexed; first compound 0.01 µM,0.213
same,relative viability,CX-5461 + Pemetrexed; first compound 0.03162 µM,0.258
same,relative viability,CX-5461 + Pemetrexed; first compound 0.1 µM,0.299
same,relative viability,CX-5461 + Pemetrexed; first compound 1 µM,0.236
same,relative viability,IMD-0354 + Vorinostat; first compound 0.04 µM,0.291
same,relative viability,IMD-0354 + Vorinostat; first compound 0.1265 µM,0.284
same,relative viability,IMD-0354 + Vorinostat; first compound 1.265 µM,0.158
same,relative viability,IMD-0354 + Vorinostat; first compound 4 µM,0.216
same,relative viability,IMD-0354 + Pictilisib; first compound 0.04 µM,0.425
same,relative viability,IMD-0354 + Pictilisib; first compound 0.1265 µM,0.504
same,relative viability,IMD-0354 + Pictilisib; first compound 0.4 µM,0.408
same,relative viability,IMD-0354 + Pictilisib; first compound 1.265 µM,0.381
same,relative viability,IMD-0354 + Pictilisib; first compound 4 µM,0.246

# — the supplement of paper PMC10307832
